{"source": "patent EP0320006A2", "about": "“Uses of 1,4-dihydropyridines” (LABORATOIRES SYNTEX, priority 1987, dated 1989)", "key": {"Male CD1 mice": {"system": "Male CD1 mice", "test": "Anticonvulsant activity against pentylenetetrazole (PTZ) induced seizures", "assay_type": "in vivo", "settings": "for % Clonic: incidence of clonic seizures; for % Tonic: incidence of tonic seizures", "method": "The amount of test compound needed to prevent convulsions induced by a fixed amount of pentylenetetrazol can then be determined.\n(A) Male CD1 mice (Charles River) are randomly divided into groups of at least 20, and treated with 500 µg/Kg of (S,RS)-2,6-dimethyl-3-carbomethoxy-4-(3-nitrophenyl)-5-(3-[4-(2-tetrahydropyran-2-yloxyethyl)-phenoxy]propoxycarbonyl)-1,4-dihydropyridine (the compound is dissolved in 0.1 mL of ethanol and diluted with 99.9 mL saline and injected intraperitoneally) before subcutaneous administration of 100 mg/Kg pentylenetetrazole (\"PTZ\", a known convulsant) under the following dosing schedules: (A) 15 minutes prior to PTZ administration; (B) 60 minutes prior to PTZ administration; and (C) b.i.d. for three days prior to PTZ administration, a further dose being given on a fourth day 15 minutes prior to PTZ administration. After PTZ administration, the mice are observed for at least 30 minutes, and the incidence of clonic seizures, tonic seizures, and death is noted. The experiment is terminated by pentobarbitone overdose."}, "[1]": {"system": "CA₁ pyramidal cells in the hippocampus", "test": "Neuroprotection from ischemic damage: delayed neuronal death after bilateral carotid occlusion", "assay_type": "in vivo, Mongolian gerbils", "settings": "then B.I.D. three days post-ischemia", "method": "This experimental test is described in the literature by Kirino, T. Brain Research, 239, 57-69 (1982). A detailed description is set forth in Example 3.\nMongolian gerbils of either sex (50-80 g) are treated with a test compound (or control) either intraperitoneally (IP) at 500 mg/kg 15 minutes prior to induction of ischemia followed by B.I.D. dosing for three days post-ischemia, or orally at 5 mg/kg twice daily for 3 out of 4 days and then 15 minutes prior to cerebral ischemia on the 4th day followed by B.I.D. dosing for three days post-ischemia. To facilitate induction of forebrain ischemia the animals are then anesthetized with halothane (5% in 30:70 oxygen:nitrous oxide) delivered by face mask. Following rapid induction, the halothane is decreased to 1.5-2% and maintained at that level for the remainder of the experiment. The left and right common carotid arteries are exposed in the paratracheal region through a ventral midline cervical skin incision and freed from the accompanying vagosympathetic nerve trunks. A loose ligature is placed around the arteries to facilitate identification at the time of occlusion.\nThe carotid arteries are then bilaterally occluded for 5 minutes using microvascular clips (Ackland C-2-V, Weiss, London). Blood flow is then restored, the wound dusted with antibiotic powder (Cicatrin, Calmic Medical Division, The Wellcome Foundation Ltd., London), and sutured. The subjects are then caged individually and allowed food and water ad libitum. […]\nThe extent of neuronal death is determined by counting microscopically (at 40x power) all normal and abnormal cells in five fields per hemisphere of the hippocampal CA₁ subfield from the paramedian area to its junction with CA₂ neurons. The field counts are then summed and the mean percentage of dead cells calculated (n=10 fields per brain). Statistical significance was calculated using the Student's t test for unpaired samples, with significance taken at p less than 0.05."}, "dogs": {"system": "dogs", "test": "Toxicology: three-month oral dosing", "assay_type": "in vivo"}, "[2]": {"settings": "schedule A: 500 µg/Kg intraperitoneally 15 minutes prior to PTZ 100 mg/Kg s.c."}, "[3]": {"settings": "schedule B: 500 µg/Kg intraperitoneally 60 minutes prior to PTZ 100 mg/Kg s.c."}, "[4]": {"settings": "schedule C: 500 µg/Kg intraperitoneally b.i.d. for three days, further dose on fourth day 15 minutes prior to PTZ 100 mg/Kg s.c."}}, "note": "Marks after values point to notes of the source that are not given here.", "data": [{"compound": "COC(=O)C1=C(C)NC(C)=C(C(=O)OCCCOc2ccc(CCOC3CCCCO3)cc2)[C@H]1c1cccc([N+](=O)[O-])c1", "note": "(mixture of isomers) [X, (S,RS)-2,6-dimethyl-3-carbomethoxy-4-(3-nitrophenyl)-5-[3-(4-[2-(tetrahydropyran-2-yloxy)ethyl]phenoxy)propoxycarbonyl]-1,4-dihydropyridine]", "values": [{"measurement": "anticonvulsant activity", "setting": "Male CD1 mice; PTZ test in mice, statement in words", "result": "demonstrates anticonvulsant activity"}, {"measurement": "% Death", "setting": "Male CD1 mice; [2]", "result": "38.1* %"}, {"measurement": "% Clonic", "setting": "Male CD1 mice; [2]", "result": 90.5, "unit": "%"}, {"measurement": "% Tonic", "setting": "Male CD1 mice; [2]", "result": 90.5, "unit": "%"}, {"measurement": "% Death", "setting": "Male CD1 mice; [3]", "result": "35* %"}, {"measurement": "% Clonic", "setting": "Male CD1 mice; [3]", "result": 80, "unit": "%"}, {"measurement": "% Tonic", "setting": "Male CD1 mice; [3]", "result": "40*** %"}, {"measurement": "% Death", "setting": "Male CD1 mice; [4]", "result": 60, "unit": "%"}, {"measurement": "% Clonic", "setting": "Male CD1 mice; [4]", "result": "65** %"}, {"measurement": "% Tonic", "setting": "Male CD1 mice; [4]", "result": 55, "unit": "%"}, {"measurement": "Percentage abnormal neurone count", "setting": "[1]; intraperitoneal administration, PEG 300 + water, 500 mg/kg 15 minutes prior to ischemia, 5 minutes occlusion, counted at 72 hours", "result": "6.6 ± 0.8", "unit": "%"}, {"measurement": "Percentage abnormal neurone count", "setting": "[1]; intraperitoneal administration, alcoholic vehicle, 500 mg/kg 15 minutes prior to ischemia, 5 minutes occlusion, counted at 72 hours", "result": "5.6 ± 0.3", "unit": "%"}, {"measurement": "Percentage abnormal neurone count", "setting": "[1]; oral, PEG 300 + vehicle, 5 mg/kg twice daily 3 out of 4 days, 15 minutes prior to ischemia on 4th day", "result": "58.0 ± 5.0", "unit": "%"}, {"measurement": "pathological change", "setting": "dogs; oral dosing of dogs for three months at 1.5 and 10 mg/kg/day", "result": "did not produce any pathological change"}, {"measurement": "urine analysis", "setting": "dogs; oral dosing of dogs for three months, all doses", "result": "normal"}, {"measurement": "Ophthalmoscopy", "setting": "dogs; oral dosing of dogs for three months, all doses, throughout the study", "result": "remained normal"}]}]}
